Measured values: patent US20230357269A1 (LES LABORATOIRES SERVIER, priority 2020, published 2023)
pIC50: −log10 of the molar value.

Target: human recombinant LRRK2 protein (Homo sapiens (Human), UniProt Q5S007)
Experiment: LRRK2 Kinase Activity Assay (ADP-Glo)
Assay type: biochemical
Conditions: LRRK2 wt; LRRKtide peptide and ATP substrates; 1h-incubation at 37° C.
Procedure: LRRK2 Kinase reactions were carried out in 384-well white polystyrene plates in a final volume of 6 μl using ADP-Glo™ Kinase Assay kit (Promega Corp.). Compound and substrates (LRRKtide peptide and ATP) in assay buffer were first dispensed in wells. Kinase reaction was then started by the addition of human recombinant LRRK2 protein. After 1h-incubation at 37° C., the enzymatic reaction was stopped by the addition of 6 μl of ADP-Glo Reagent-1 and an additional 40-minutes incubation at 23° C. (residual ATP depletion). A final 30-minutes incubation after 12 μL reagent-2 addition (ADP to ATP conversion and luciferin/luciferase reaction) was performed before luminescent signal acquisition (EnVision™ multimode plate reader-PerkinElmer, Inc.). Data from 10 individual concentrations of tested compounds (N=2) were fitted (XLfit™-ID Business Solutions Ltd) to deliver IC50s (compound concentration leading to 50% inhibition of reference enzymatic activity).
The compounds are dissolved to 5 mM in DMSO. When needed, solutions are sonicated in a bath sonicator.
Table 2 provides the IC50 values of the compounds according to the invention, obtained using the above-mentioned kinase assay. Activities are represented as +++, ++ and +, having the following meanings: • +++ means IC50<10 nM • ++ means 10 nM≤IC50<100 nM • + means 100 nM≤IC50<1 μM.

Sequence of human recombinant LRRK2 protein (Q5S007 whole entry): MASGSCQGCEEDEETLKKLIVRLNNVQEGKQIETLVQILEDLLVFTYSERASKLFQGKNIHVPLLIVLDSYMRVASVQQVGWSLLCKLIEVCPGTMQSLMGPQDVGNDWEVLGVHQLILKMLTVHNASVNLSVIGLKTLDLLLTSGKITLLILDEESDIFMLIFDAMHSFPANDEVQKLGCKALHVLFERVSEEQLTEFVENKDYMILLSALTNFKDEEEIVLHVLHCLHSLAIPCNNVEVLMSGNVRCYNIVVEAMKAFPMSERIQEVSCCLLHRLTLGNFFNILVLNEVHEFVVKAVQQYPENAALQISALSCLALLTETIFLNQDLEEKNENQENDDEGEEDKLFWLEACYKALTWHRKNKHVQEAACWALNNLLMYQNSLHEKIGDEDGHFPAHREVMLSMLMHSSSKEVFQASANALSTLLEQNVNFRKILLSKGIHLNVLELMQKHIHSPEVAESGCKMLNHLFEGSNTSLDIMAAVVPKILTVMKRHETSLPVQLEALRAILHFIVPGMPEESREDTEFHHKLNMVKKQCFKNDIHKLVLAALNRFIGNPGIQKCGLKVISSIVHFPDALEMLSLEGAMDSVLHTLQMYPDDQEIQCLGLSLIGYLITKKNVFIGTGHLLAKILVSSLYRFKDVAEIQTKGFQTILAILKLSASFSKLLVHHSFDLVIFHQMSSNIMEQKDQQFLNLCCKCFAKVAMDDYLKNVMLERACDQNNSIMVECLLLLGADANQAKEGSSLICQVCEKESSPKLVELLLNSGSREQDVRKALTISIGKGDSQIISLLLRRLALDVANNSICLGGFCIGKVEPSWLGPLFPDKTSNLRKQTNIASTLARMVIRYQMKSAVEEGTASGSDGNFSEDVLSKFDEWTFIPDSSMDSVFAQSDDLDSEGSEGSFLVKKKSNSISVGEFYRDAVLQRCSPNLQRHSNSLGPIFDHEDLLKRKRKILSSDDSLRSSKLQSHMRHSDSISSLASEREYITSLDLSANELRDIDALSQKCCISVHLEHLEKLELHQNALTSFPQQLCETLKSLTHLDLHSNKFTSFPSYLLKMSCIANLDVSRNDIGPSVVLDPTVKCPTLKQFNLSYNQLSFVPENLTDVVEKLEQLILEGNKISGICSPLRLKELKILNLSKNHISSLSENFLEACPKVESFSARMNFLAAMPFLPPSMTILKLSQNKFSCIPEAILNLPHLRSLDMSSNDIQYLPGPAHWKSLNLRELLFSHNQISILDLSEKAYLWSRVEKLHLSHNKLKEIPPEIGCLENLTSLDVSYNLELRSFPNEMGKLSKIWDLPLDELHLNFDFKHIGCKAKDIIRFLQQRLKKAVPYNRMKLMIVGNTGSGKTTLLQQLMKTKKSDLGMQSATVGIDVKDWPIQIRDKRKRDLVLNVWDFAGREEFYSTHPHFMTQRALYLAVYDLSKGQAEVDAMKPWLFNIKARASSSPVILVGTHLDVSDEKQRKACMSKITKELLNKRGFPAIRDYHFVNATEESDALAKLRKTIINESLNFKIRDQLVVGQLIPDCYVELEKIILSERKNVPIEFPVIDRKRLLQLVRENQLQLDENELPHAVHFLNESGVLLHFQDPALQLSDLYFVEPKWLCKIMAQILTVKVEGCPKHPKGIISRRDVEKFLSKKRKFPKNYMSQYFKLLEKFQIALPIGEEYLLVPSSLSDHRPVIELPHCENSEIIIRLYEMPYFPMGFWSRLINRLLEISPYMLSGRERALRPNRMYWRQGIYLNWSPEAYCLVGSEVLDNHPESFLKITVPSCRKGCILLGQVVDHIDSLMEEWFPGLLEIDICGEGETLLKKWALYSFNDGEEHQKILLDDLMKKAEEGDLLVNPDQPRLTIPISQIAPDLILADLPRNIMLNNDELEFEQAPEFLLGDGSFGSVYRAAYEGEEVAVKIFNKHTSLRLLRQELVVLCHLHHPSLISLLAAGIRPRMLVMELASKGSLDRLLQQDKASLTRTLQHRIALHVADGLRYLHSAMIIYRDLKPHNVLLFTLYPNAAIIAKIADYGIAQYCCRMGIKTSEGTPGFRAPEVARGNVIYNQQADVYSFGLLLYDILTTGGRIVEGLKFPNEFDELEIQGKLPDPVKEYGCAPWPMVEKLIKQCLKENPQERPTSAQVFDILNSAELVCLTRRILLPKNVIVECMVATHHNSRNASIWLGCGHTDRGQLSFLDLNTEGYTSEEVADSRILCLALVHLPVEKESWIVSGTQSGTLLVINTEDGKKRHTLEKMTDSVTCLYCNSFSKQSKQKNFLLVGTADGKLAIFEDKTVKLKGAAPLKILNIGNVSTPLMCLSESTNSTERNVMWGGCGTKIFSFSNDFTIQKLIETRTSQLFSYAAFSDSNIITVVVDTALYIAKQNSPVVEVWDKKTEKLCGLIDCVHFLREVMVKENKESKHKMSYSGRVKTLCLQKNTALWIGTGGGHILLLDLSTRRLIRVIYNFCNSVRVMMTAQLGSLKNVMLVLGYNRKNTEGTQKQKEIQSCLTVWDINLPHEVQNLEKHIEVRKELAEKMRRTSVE

Row | SMILES | pIC50
1 | Cc1cc2cc(c1)-c1n[nH]c3ccc(cc13)OCCCN(C)C(=O)OC2 [Example 54, 4,10-dimethyl-8,14-dioxa-10,19,20-triazatetracyclo[13.5.2.1^2,6.0^18,21]tricosa-1(20),2,4,6(23),15,17,21-heptaen-9-one] | > 8.00
2 | CC(C)Oc1cc2cc(c1)-c1n[nH]c3ccc(cc13)OCCCNC(=O)OC2 [Example 55, 4-(propan-2-yloxy)-8,14-dioxa-10,19,20-triazatetracyclo[13.5.2.1^2,6.0^18,21]tricosa-1(20),2,4,6(23),15,17,21-heptaen-9-one] | > 8.00
3 | CC1OC(=O)NCCCOc2ccc3[nH]nc(c3c2)-c2cc(F)cc1c2 (centres unmarked) [Example 56, 4-fluoro-7-methyl-8,14-dioxa-10,19,20-triazatetracyclo[13.5.2.1^2,6.0^18,21]tricosa-1(20),2,4,6(23),15,17,21-heptaen-9-one] | > 8.00
4 | O=C1NCCCOc2ccc3[nH]nc(c3c2)-c2cc(cc(C3=CCN(C4COC4)CC3)c2)CO1 [Example 57, 4-[1-(oxetan-3-yl)-1,2,3,6-tetrahydropyridin-4-yl]-8,14-dioxa-10,19,20-triazatetracyclo[13.5.2.1^2,6.0^18,21]tricosa-1(20),2,4,6(23),15,17,21-heptaen-9-one] | > 8.00
5 | CC1CCCN(c2cc3cc(c2)-c2n[nH]c4ccc(cc24)OCCCNC(=O)OC3)C1 (centres unmarked) [Example 58, 4-(3-methylpiperidin-1-yl)-8,14-dioxa-10,19,20-triazatetracyclo[13.5.2.1^2,6.0^18,21]tricosa-1(20),2,4,6(23),15,17,21-heptaen-9-one] | > 8.00
6 | O=C1NCCCOc2ccc3[nH]nc(c3c2)-c2cc(cc(N3CC[C@H](O)C3)c2)CO1 [Example 59, 4-[(3S)-3-hydroxypyrrolidin-1-yl]-8,14-dioxa-10,19,20-triazatetracyclo[13.5.2.1^2,6.0^18,21]tricosa-1(20),2,4,6(23),15,17,21-heptaen-9-one] | > 8.00
7 | O=C1OC2CN1CCCOc1ccc3[nH]nc(c3c1)-c1cc(F)cc2c1 (centres unmarked) [Example 60, 4-fluoro-8,14-dioxa-10,19,20-triazapentacyclo[13.5.2.1^2,6.1^7,10.0^18,21]tetracosa-1(20),2(24),3,5,15(22),16,18(21)-heptaen-9-one] | > 8.00
8 | O=C1NCCCOc2ccc3[nH]nc(c3c2)-c2cc(cc(C3CCOC3)c2)CO1 (centres unmarked) [Example 61, 4-(oxolan-3-yl)-8,14-dioxa-10,19,20-triazatetracyclo[13.5.2.1^2,6.0^18,21]tricosa-1(20),2,4,6(23),15,17,21-heptaen-9-one] | > 8.00
9 | C[C@H]1CCNC(=O)OCc2cccc(c2)-c2n[nH]c3ccc(cc23)O1 [Example 62, (13S)-13-methyl-8,14-dioxa-10,19,20-triazatetracyclo[13.5.2.1^2,6.0^18,21]tricosa-1(20),2(23),3,5,15(22),16,18(21)-heptaen-9-one] | > 8.00
10 | C[C@@H]1CCNC(=O)OCc2cccc(c2)-c2n[nH]c3ccc(cc23)O1 [Example 63, (13R)-13-methyl-8,14-dioxa-10,19,20-triazatetracyclo[13.5.2.1^2,6.0^18,21]tricosa-1(20),2(23),3,5,15(22),16,18(21)-heptaen-9-one] | > 8.00
11 | Cn1ccc(-c2cc3cc(c2)-c2n[nH]c4ccc(cc24)OCCCNC(=O)OC3)n1 [Example 64, 4-(1-methyl-1H-pyrazol-3-yl)-8,14-dioxa-10,19,20-triazatetracyclo[13.5.2.1^2,6.0^18,21]tricosa-1(20),2(23),3,5,15(22),16,18(21)-heptaen-9-one] | > 8.00
12 | C[C@@H]1OC(=O)NCCCOc2ccc3[nH]nc(c3c2)-c2cccc1c2 [Example 65, (7S)-7-methyl-8,14-dioxa-10,19,20-triazatetracyclo[13.5.2.1^2,6.0^18,21]tricosa-1(20),2(23),3,5,15(22),16,18(21)-heptaen-9-one] | 7.00 to 8.00
13 | O=C1NCCCOc2ccc3[nH]nc(c3c2)-c2cc(cc(OCCN3CCOCC3)c2)CO1 [Example 66, 4-[2-(morpholin-4-yl)ethoxy]-8,14-dioxa-10,19,20-triazatetracyclo[13.5.2.1^2,6.0^18,21]tricosa-1(20),2(23),3,5,15(22),16,18(21)-heptaen-9-one] | > 8.00
14 | COCCc1cc2cc(c1)-c1n[nH]c3ccc(cc13)OCCCNC(=O)OC2 [Example 67, 4-(2-methoxyethyl)-8,14-dioxa-10,19,20-triazatetracyclo[13.5.2.1^2,6.0^18,21]tricosa-1(20),2(23),3,5,15(22),16,18(21)-heptaen-9-one] | > 8.00
15 | C[C@H]1OC(=O)NCCCOc2ccc3[nH]nc(c3c2)-c2cccc1c2 [Example 68, (7R)-7-methyl-8,14-dioxa-10,19,20-triazatetracyclo[13.5.2.1^2,6.0^18,21]tricosa-1(20),2(23),3,5,15(22),16,18(21)-heptaen-9-one] | > 8.00
16 | O=C1NCCCOc2ccc3[nH]nc(c3c2)-c2ccc(C3CC3)c(c2)CO1 [Example 69, 5-cyclopropyl-8,14-dioxa-10,19,20-triazatetracyclo[13.5.2.1^2,6.0^18,21]tricosa-1(20),2,4,6(23),15,17,21-heptaen-9-one] | > 8.00
17 | COCCOc1cc2cc(c1)-c1n[nH]c3ccc(cc13)OCCCNC(=O)OC2 [Example 70, 4-(2-methoxyethoxy)-8,14-dioxa-10,19,20-triazatetracyclo[13.5.2.1^2,6.0^18,21]tricosa-1(20),2,4,6(23),15,17,21-heptaen-9-one] | > 8.00
18 | CC1CCNC(=O)OCc2cc(F)cc(c2)-c2n[nH]c3ccc(cc23)O1 (centres unmarked) [Example 71, 4-fluoro-13-methyl-8,14-dioxa-10,19,20-triazatetracyclo[13.5.2.1^2,6.0^18,21]tricosa-1(20),2,4,6(23),15,17,21-heptaen-9-one] | > 8.00
19 | CC1CCOc2ccc3[nH]nc(c3c2)-c2cccc(c2)COC(=O)N1 (centres unmarked) [Example 72, 11-methyl-8,14-dioxa-10,19,20-triazatetracyclo[13.5.2.1^2,6.0^18,21]tricosa-1(20),2,4,6(23),15,17,21-heptaen-9-one] | > 8.00
20 | O=C1NCCCOc2ccc3[nH]nc(c3c2)-c2cc(cc(N3CCOCC3=O)c2)CO1 [Example 73, 4-(3-oxomorpholin-4-yl)-8,14-dioxa-10,19,20-triazatetracyclo[13.5.2. 1^2,6.0^18,21]tricosa-1(20),2(23),3,5,15(22),16,18(21)-heptaen-9-one] | > 8.00
21 | O=C1NCCCOc2ccc3[nH]nc(c3c2)-c2cc(cc(N3CCCC3=O)c2)CO1 [Example 74, 4-(2-oxopyrrolidin-1-yl)-8,14-dioxa-10,19,20-triazatetracyclo[13.5.2. 1^2,6.0^18,21]tricosa-1(20),2(23),3,5,15(22),16,18(21)-heptaen-9-one] | > 8.00
22 | O=C1NCCCOc2ccc3[nH]nc(c3c2)-c2ccc(N3CCCC3=O)c(c2)CO1 [Example 75, 5-(2-oxopyrrolidin-1-yl)-8,14-dioxa-10,19,20-triazatetracyclo[13.5.2. 1^2,6.0^18,21]tricosa-1(20),2(23),3,5,15(22),16,18(21)-heptaen-9-one] | > 8.00
23 | CC1CCCN1c1cc2cc(c1)-c1n[nH]c3ccc(cc13)OCCCNC(=O)OC2 (centres unmarked) [Example 76, 4-(2-methylpyrrolidin-1-yl)-8,14-dioxa-10,19,20-triazatetracyclo[13.5.2.1^2,6.0^18,21]tricosa-1(20),2(23),3,5,15(22),16,18(21)-heptaen-9-one] | > 8.00
24 | N#CCc1cc2cc(c1)-c1n[nH]c3ccc(cc13)OCCCNC(=O)OC2 [Example 77, 2-{9-oxo-8,14-dioxa-10,19,20-triazatetracyclo[13.5.2.1^2,6.0^18,21]tricosa-1(20),2(23),3,5,15(22),16,18(21)-heptaen-4-yl}acetonitrile] | > 8.00
25 | C#Cc1cc2cc(c1)-c1n[nH]c3ccc(cc13)OCCCNC(=O)OC2 [Example 80, 4-ethynyl-8,14-dioxa-10,19,20-triazatetracyclo[13.5.2.1^2,6.0^18,21]tricosa-1(20),2(23),3,5,15(22),16,18(21)-heptaen-9-one] | > 8.00
26 | O=C1NCCCOc2ccc3[nH]nc(c3c2)-c2cc(cc(N3CCNCC3)c2)CO1 [Example 81, 4-(piperazin-1-yl)-8,14-dioxa-10,19,20-triazatetracyclo[13.5.2.1^2,6.0^18,21]tricosa-1(20),2(23),3,5,15(22),16,18(21)-heptaen-9-one] | > 8.00
27 | O=C1NCCCOc2ccc3[nH]nc(c3c2)-c2cc(cc(C3=CCNCC3)c2)CO1 [Example 82, 4-(1,2,3,6-tetrahydropyridin-4-yl)-8,14-dioxa-10,19,20-triazatetracyclo[13.5.2.1^2,6.0^18,21]tricosa-1(20),2(23),3,5,15(22),16,18(21)-heptaen-9-one] | > 8.00
28 | COCC1CCOc2ccc3[nH]nc(c3c2)-c2cccc(c2)COC(=O)N1 (centres unmarked) [Example 83, 11-(methoxymethyl)-8,14-dioxa-10,19,20-triazatetracyclo[13.5.2.1^2,6.0^18,21]tricosa-1(20),2(23),3,5,15(22),16,18(21)-heptaen-9-one] | > 8.00
29 | O=C1NCCCOc2ccc3[nH]nc(c3c2)-c2ccn(n2)CCO1 [Example 84, 8,14-dioxa-5,10,19,20,23-pentaazatetracyclo[13.5.2.1^2,5.0^18,21]tricosa-1(20),2(23),3,15(22),16,18(21)-hexaen-9-one] | 7.00 to 8.00
